# Data published in article PMC7915588, “Polyphyllin D Shows Anticancer Effect through a Selective Inhibition of Src Homology Region 2-Containing Protein Tyrosine Phosphatase-2 (SHP2)” (Molecules, 2021).
# How the values were obtained:
# Assay in all cases: biochemical
# Design in all cases: Fluorogenic phosphatase assay, DiFMUP hydrolysis by recombinant PTPs, initial velocity, Ex/Em 355/460 nm
# Settings in all cases: read-out: Inhibition by 20 µM polyphyllin D (%)
# PTPN18 (PTP-HSCF) = target: T1, PTPN18 (PTP-HSCF) (Homo sapiens, UniProt Q99952)
# T1 construct: 1-300
# T1 sequence (Q99952 1-460): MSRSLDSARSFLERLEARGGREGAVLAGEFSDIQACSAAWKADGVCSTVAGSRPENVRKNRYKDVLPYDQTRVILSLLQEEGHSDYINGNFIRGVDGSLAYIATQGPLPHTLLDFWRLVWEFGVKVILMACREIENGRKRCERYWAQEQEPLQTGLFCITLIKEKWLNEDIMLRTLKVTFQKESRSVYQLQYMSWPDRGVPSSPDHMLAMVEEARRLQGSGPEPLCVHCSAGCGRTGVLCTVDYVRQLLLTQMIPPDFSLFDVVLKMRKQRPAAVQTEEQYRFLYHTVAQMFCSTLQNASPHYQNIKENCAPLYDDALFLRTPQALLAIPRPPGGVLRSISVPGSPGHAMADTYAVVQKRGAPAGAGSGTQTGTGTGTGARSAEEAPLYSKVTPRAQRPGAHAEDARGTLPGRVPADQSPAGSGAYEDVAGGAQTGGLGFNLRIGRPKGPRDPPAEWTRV
# PTPN22 (LYP) = target: T2, PTPN22 (LYP) (Homo sapiens, UniProt Q9Y2R2)
# T2 construct: 1-326
# T2 sequence (Q9Y2R2 1-807): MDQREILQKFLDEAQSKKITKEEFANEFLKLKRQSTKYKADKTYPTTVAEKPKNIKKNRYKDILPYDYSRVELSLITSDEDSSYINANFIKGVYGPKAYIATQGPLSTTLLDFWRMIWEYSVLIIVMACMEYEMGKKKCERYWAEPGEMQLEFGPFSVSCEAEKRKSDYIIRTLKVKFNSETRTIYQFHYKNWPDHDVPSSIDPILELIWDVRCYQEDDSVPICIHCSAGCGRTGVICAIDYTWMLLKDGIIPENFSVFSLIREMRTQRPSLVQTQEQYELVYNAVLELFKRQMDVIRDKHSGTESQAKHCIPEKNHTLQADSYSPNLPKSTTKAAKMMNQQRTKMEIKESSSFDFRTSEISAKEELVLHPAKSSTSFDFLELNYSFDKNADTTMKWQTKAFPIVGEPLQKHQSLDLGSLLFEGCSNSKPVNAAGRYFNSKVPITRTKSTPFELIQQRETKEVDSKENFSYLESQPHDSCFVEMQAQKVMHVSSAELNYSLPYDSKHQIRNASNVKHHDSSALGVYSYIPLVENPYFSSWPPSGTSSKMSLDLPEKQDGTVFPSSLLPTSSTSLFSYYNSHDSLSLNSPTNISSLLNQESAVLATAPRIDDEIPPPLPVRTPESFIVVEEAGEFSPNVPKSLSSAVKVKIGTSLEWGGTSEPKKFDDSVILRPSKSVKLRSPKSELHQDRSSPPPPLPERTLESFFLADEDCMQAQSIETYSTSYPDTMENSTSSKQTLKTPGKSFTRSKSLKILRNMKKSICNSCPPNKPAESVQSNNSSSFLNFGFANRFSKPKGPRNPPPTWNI
# SHP2 = target: T3, SHP2 (Homo sapiens, UniProt Q06124)
# T3 construct: gene PTPN11
# T3 sequence (Q06124 1-526): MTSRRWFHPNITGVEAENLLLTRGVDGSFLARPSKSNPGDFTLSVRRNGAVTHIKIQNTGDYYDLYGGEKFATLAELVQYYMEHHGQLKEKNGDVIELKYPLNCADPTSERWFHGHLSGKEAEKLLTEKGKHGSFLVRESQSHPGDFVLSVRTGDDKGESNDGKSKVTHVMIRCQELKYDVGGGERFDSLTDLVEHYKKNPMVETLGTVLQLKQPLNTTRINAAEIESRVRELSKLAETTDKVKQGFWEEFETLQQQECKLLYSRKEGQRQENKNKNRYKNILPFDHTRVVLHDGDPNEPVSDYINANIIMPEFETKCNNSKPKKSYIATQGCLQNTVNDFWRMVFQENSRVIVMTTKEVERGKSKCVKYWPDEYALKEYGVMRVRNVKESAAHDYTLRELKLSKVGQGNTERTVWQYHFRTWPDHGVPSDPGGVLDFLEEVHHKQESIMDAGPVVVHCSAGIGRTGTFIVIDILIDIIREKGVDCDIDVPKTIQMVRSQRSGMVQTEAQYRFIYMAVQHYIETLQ
compound,measurement,setting,value
C[C@@H]1CC[C@@]2(OC1)O[C@H]1C[C@H]3[C@@H]4CC=C5C[C@@H](O[C@@H]6O[C@H](CO)[C@@H](O[C@@H]7O[C@@H](CO)[C@H](O)[C@H]7O)[C@H](O)[C@H]6O[C@@H]6O[C@@H](C)[C@H](O)[C@@H](O)[C@H]6O)CC[C@]5(C)[C@H]4CC[C@]3(C)[C@H]1[C@@H]2C [polyphyllin D],inhibition at 20 µM,PTPN18 (PTP-HSCF),14.2%
same,inhibition at 20 µM,PTPN22 (LYP),0.1%
same,inhibition at 20 µM,SHP2,85.6%
